Assay results published in the supplement of paper PMC10307832.

Each cell line was assayed with COc1cc(Nc2ncc(F)c(Nc3ccc4c(n3)NC(=O)C(C)(C)O4)n2)cc(OC)c1OC [R406] + CC(=O)Nc1cccc(-n2c(=O)n(C3CC3)c(=O)c3c(Nc4ccc(I)cc4F)n(C)c(=O)c(C)c32)c1 [Trametinib] (partner 0.02 µM) (assay: relative viability (nuclei count vs DMSO), 5 days (fraction); higher = more cells survive). Details: first compound 0.08 µM.
Summary of the method: (§1)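 Values are medians from duplicate plates. Each reflects relative viability, defined as the nuclei count of treated wells over that of vehicle wells. Lung cancer cell lines in 1536-well plates were pin-tool dosed one day after seeding with one drug alone or with a fixed anchor-drug dose plus five library-drug doses (not always all listed) in √10 steps, then fixed, stained and imaged at 4× after 5 days.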

How did the relative viability turn out when NCI-H1355 was run?
The relative viability was 0.456.

With NCI-H3122 as the cell line, how does the relative viability read?
The relative viability was 0.234.

NCI-H1437 was tested. Which relative viability did it give?
Its relative viability is 0.547.

With NCI-H1755 as the cell line, how does the relative viability read?
Its relative viability is 0.679.

With NCI-H2023 as the cell line, how does the relative viability read?
Its relative viability is 0.499.

How did the relative viability turn out when HCC-15 was run?
The relative viability was 0.392.

Which relative viability does the source give for PC-3 [JPC-3] here?
Its relative viability is 0.801.

EKVX was tested. Which relative viability did it give?
The relative viability was 0.405.

Which relative viability does the source give for LC-2-ad here?
Its relative viability is 0.912.

With NCI-H1975 as the cell line, how does the relative viability read?
The relative viability was 0.315.

Which relative viability does the source give for SK-LU-1 here?
Its relative viability is 0.535.

With NCI-H661 as the cell line, how does the relative viability read?
Its relative viability is 0.561.

RERF-LC-KJ was tested. Which relative viability did it give?
Its relative viability is 0.833.

Same assay, conditions: first compound 0.253 µM

NCI-H1355 was tested. Which relative viability did it give?
Its relative viability is 0.45.

NCI-H3122 was tested. Which relative viability did it give?
Its relative viability is 0.218.

How did the relative viability turn out when NCI-H1437 was run?
The relative viability was 0.657.

For NCI-H1755, which relative viability is on record?
The relative viability was 0.788.

With NCI-H2023 as the cell line, how does the relative viability read?
Its relative viability is 0.562.

With HCC-15 as the cell line, how does the relative viability read?
The relative viability was 0.385.

Which relative viability does the source give for PC-3 [JPC-3] here?
Its relative viability is 0.738.

With EKVX as the cell line, how does the relative viability read?
Its relative viability is 0.383.

With LC-2-ad as the cell line, how does the relative viability read?
The relative viability was 0.907.

Which relative viability does the source give for NCI-H1975 here?
The relative viability was 0.307.

SK-LU-1 was tested. Which relative viability did it give?
Its relative viability is 0.531.

With NCI-H661 as the cell line, how does the relative viability read?
Its relative viability is 0.604.

How did the relative viability turn out when RERF-LC-KJ was run?
The relative viability was 0.918.

Same assay, conditions: first compound 0.8 µM

NCI-H1355 was tested. Which relative viability did it give?
The relative viability was 0.406.

NCI-H3122 was tested. Which relative viability did it give?
Its relative viability is 0.206.

NCI-H1437 was tested. Which relative viability did it give?
The relative viability was 0.637.

With NCI-H1755 as the cell line, how does the relative viability read?
Its relative viability is 0.714.

With NCI-H2023 as the cell line, how does the relative viability read?
The relative viability was 0.582.

For HCC-15, which relative viability is on record?
The relative viability was 0.406.

With PC-3 [JPC-3] as the cell line, how does the relative viability read?
The relative viability was 0.81.

EKVX was tested. Which relative viability did it give?
Its relative viability is 0.348.

With LC-2-ad as the cell line, how does the relative viability read?
The relative viability was 0.971.

NCI-H1975 was tested. Which relative viability did it give?
Its relative viability is 0.287.

How did the relative viability turn out when SK-LU-1 was run?
The relative viability was 0.55.

Which relative viability does the source give for NCI-H661 here?
Its relative viability is 0.57.

RERF-LC-KJ was tested. Which relative viability did it give?
Its relative viability is 1.

Same assay, conditions: first compound 2.53 µM

With NCI-H1355 as the cell line, how does the relative viability read?
The relative viability was 0.384.

NCI-H3122 was tested. Which relative viability did it give?
The relative viability was 0.241.

With NCI-H1437 as the cell line, how does the relative viability read?
Its relative viability is 0.487.

Which relative viability does the source give for NCI-H1755 here?
The relative viability was 0.704.

With NCI-H2023 as the cell line, how does the relative viability read?
The relative viability was 0.286.

How did the relative viability turn out when HCC-15 was run?
The relative viability was 0.415.

Which relative viability does the source give for PC-3 [JPC-3] here?
The relative viability was 0.669.

How did the relative viability turn out when EKVX was run?
Its relative viability is 0.364.

LC-2-ad was tested. Which relative viability did it give?
The relative viability was 0.465.

Which relative viability does the source give for NCI-H1975 here?
The relative viability was 0.112.

Which relative viability does the source give for SK-LU-1 here?
Its relative viability is 0.157.

NCI-H661 was tested. Which relative viability did it give?
The relative viability was 0.489.

With RERF-LC-KJ as the cell line, how does the relative viability read?
The relative viability was 0.753.

Same assay, conditions: first compound 8 µM

With NCI-H1355 as the cell line, how does the relative viability read?
The relative viability was 0.327.

How did the relative viability turn out when NCI-H3122 was run?
Its relative viability is 0.234.

Which relative viability does the source give for NCI-H1437 here?
The relative viability was 0.295.

For NCI-H1755, which relative viability is on record?
The relative viability was 0.465.

How did the relative viability turn out when NCI-H2023 was run?
The relative viability was 0.129.

With HCC-15 as the cell line, how does the relative viability read?
The relative viability was 0.331.

With PC-3 [JPC-3] as the cell line, how does the relative viability read?
The relative viability was 0.475.

For EKVX, which relative viability is on record?
The relative viability was 0.264.

With LC-2-ad as the cell line, how does the relative viability read?
Its relative viability is 0.334.

Which relative viability does the source give for NCI-H1975 here?
The relative viability was 0.201.

For SK-LU-1, which relative viability is on record?
Its relative viability is 0.195.

How did the relative viability turn out when NCI-H661 was run?
The relative viability was 0.366.

With RERF-LC-KJ as the cell line, how does the relative viability read?
The relative viability was 0.715.

What follows are cell lines tested with COc1cc(Nc2ncc(F)c(Nc3ccc4c(n3)NC(=O)C(C)(C)O4)n2)cc(OC)c1OC [R406] + CC(C)C[C@H](NC(=O)[C@H](Cc1ccccc1)NC(=O)c1cnccn1)B(O)O [Bortezomib] (partner 0.002 µM) in the same assay as above. Details: first compound 0.08 µM.
Summary of the method: as §1

NCI-H1355 was tested. Which relative viability did it give?
Its relative viability is 1.23.

With NCI-H3122 as the cell line, how does the relative viability read?
The relative viability was 0.97.

How did the relative viability turn out when NCI-H1437 was run?
The relative viability was 0.392.

How did the relative viability turn out when NCI-H1755 was run?
Its relative viability is 0.994.

NCI-H2023 was tested. Which relative viability did it give?
The relative viability was 0.914.

HCC-15 was tested. Which relative viability did it give?
The relative viability was 1.02.

With PC-3 [JPC-3] as the cell line, how does the relative viability read?
The relative viability was 0.916.

How did the relative viability turn out when EKVX was run?
The relative viability was 1.01.

LC-2-ad was tested. Which relative viability did it give?
Its relative viability is 0.973.

For NCI-H1975, which relative viability is on record?
Its relative viability is 0.444.

SK-LU-1 was tested. Which relative viability did it give?
The relative viability was 1.16.

NCI-H661 was tested. Which relative viability did it give?
Its relative viability is 0.769.

How did the relative viability turn out when RERF-LC-KJ was run?
Its relative viability is 1.15.

Same assay, conditions: first compound 0.253 µM

How did the relative viability turn out when NCI-H1355 was run?
Its relative viability is 1.29.

For NCI-H3122, which relative viability is on record?
Its relative viability is 0.972.

How did the relative viability turn out when NCI-H1437 was run?
The relative viability was 0.768.

With NCI-H1755 as the cell line, how does the relative viability read?
The relative viability was 1.

For NCI-H2023, which relative viability is on record?
Its relative viability is 1.04.

Which relative viability does the source give for HCC-15 here?
The relative viability was 1.16.

How did the relative viability turn out when PC-3 [JPC-3] was run?
The relative viability was 0.866.

EKVX was tested. Which relative viability did it give?
Its relative viability is 1.17.

How did the relative viability turn out when LC-2-ad was run?
Its relative viability is 1.09.

For NCI-H1975, which relative viability is on record?
The relative viability was 0.39.

SK-LU-1 was tested. Which relative viability did it give?
The relative viability was 1.32.

With NCI-H661 as the cell line, how does the relative viability read?
The relative viability was 0.877.

RERF-LC-KJ was tested. Which relative viability did it give?
The relative viability was 1.23.

Same assay, conditions: first compound 0.8 µM

With NCI-H1355 as the cell line, how does the relative viability read?
The relative viability was 1.44.

With NCI-H3122 as the cell line, how does the relative viability read?
The relative viability was 1.03.

For NCI-H1437, which relative viability is on record?
The relative viability was 0.675.

Which relative viability does the source give for NCI-H1755 here?
The relative viability was 0.974.

How did the relative viability turn out when NCI-H2023 was run?
Its relative viability is 1.08.

HCC-15 was tested. Which relative viability did it give?
The relative viability was 1.25.

For PC-3 [JPC-3], which relative viability is on record?
Its relative viability is 0.927.

For EKVX, which relative viability is on record?
The relative viability was 1.45.

How did the relative viability turn out when LC-2-ad was run?
The relative viability was 0.987.

NCI-H1975 was tested. Which relative viability did it give?
The relative viability was 0.401.

With SK-LU-1 as the cell line, how does the relative viability read?
Its relative viability is 1.09.

NCI-H661 was tested. Which relative viability did it give?
Its relative viability is 0.945.

Which relative viability does the source give for RERF-LC-KJ here?
Its relative viability is 1.26.

Same assay, conditions: first compound 2.53 µM

How did the relative viability turn out when NCI-H1355 was run?
The relative viability was 1.02.

Which relative viability does the source give for NCI-H3122 here?
The relative viability was 1.01.

NCI-H1437 was tested. Which relative viability did it give?
Its relative viability is 0.259.

Which relative viability does the source give for NCI-H1755 here?
The relative viability was 0.748.

With NCI-H2023 as the cell line, how does the relative viability read?
Its relative viability is 0.0862.

For PC-3 [JPC-3], which relative viability is on record?
The relative viability was 0.758.

Which relative viability does the source give for EKVX here?
The relative viability was 0.994.

LC-2-ad was tested. Which relative viability did it give?
The relative viability was 0.111.

NCI-H1975 was tested. Which relative viability did it give?
Its relative viability is 0.162.

SK-LU-1 was tested. Which relative viability did it give?
Its relative viability is 0.384.

With NCI-H661 as the cell line, how does the relative viability read?
Its relative viability is 0.721.

Which relative viability does the source give for RERF-LC-KJ here?
The relative viability was 0.932.

Same assay, conditions: first compound 8 µM

NCI-H1355 was tested. Which relative viability did it give?
Its relative viability is 0.957.

For NCI-H3122, which relative viability is on record?
Its relative viability is 0.947.

Which relative viability does the source give for NCI-H1437 here?
The relative viability was 0.226.

Which relative viability does the source give for NCI-H1755 here?
The relative viability was 0.571.

How did the relative viability turn out when NCI-H2023 was run?
The relative viability was 0.29.

Which relative viability does the source give for HCC-15 here?
Its relative viability is 0.962.

PC-3 [JPC-3] was tested. Which relative viability did it give?
The relative viability was 0.755.
